The record followed here is patent US20220218700A1, “COMBINATION OF AN ?2-ADRENOCEPTOR SUBTYPE C (ALPHA-2C) ANTAGONISTS WITH A TASK1/3 CHANNEL BLOCKER FOR THE TREATMENT OF SLEEP APNEA” (Bayer Aktiengesellschaft, priority 2019, published 2022).

For this test, the system named is upper airway collapsibility. As to the kind of experiment: pig model of obstructive sleep apnea (OSA): collapse of the upper respiratory tract induced by negative pressure in anaesthetized, spontaneously breathing pigs. The following applies: for effect on upper airway collapsibility: all negative pressures of −50, −100 and −150 cm H2O. It is filed as in vivo, German Landrace pigs. An excerpt:
The therapeutic potential of the combination of an α2-Adrenoceptor subtype C (alpha-2C) antagonists with a TASK1/3 channel blocker according to the present invention in sleep apnea has been assessed preclinically in a pig model of obstructive sleep apnea (OSA).
Using negative pressure. it is possible to induce collapse and thus obstruction of the upper respiratory tract in anaesthetized, spontaneously breathing pigs (Wirth K. J. et al., Sleep 36(5) (2013) pp. 699-708).
German Landrace pigs are used for the model. The pigs are anaesthetized and tracheotomized. Two tracheal cannulas are inserted into the trachea, one into the rostral part and the other into the caudal part of the trachea. Using a connection piece. the rostral cannula is connected to a tube to the negative pressure device and to the distal tracheal cannula. The distal tracheal cannula is additionally connected to a tube with an open end to atmosphere via a connection piece that served for free tracheal breathing, circumventing the upper airway. By appropriate opening and clamping of those tubes breathing can be switched from nasal breathing to breathing through the caudal tracheal cannula, circumventing the upper airway. and the (isolated) upper airway can be connected to the negative pressure device, causing airflow in the inspiratory direction.
At certain points in time. the collapsibility of the upper respiratory tract is tested by having the pig breathe via the caudal cannula and applying negative pressures of −50, −100 and −150 cm water head (cm H2O) to the upper respiratory tract. This causes the upper respiratory tract to collapse, which manifests itself in an interruption of the airflow and a pressure drop in the tube system. This test is conducted prior to the administration of the test substance and at certain intervals after the administration of the test substance. An appropriately effective test substance can prevent this collapse of the respiratory tract in the inspiratory phase.

The mark [1] stands for this setting: time 60 min after intranasal administration of 0.3 μg, TASK1/3 blocker alone.
Where [2] appears, read: time 0 min (time point of i.v. bolus/start of infusion of alpha-2C antagonist).
The mark [3] stands for this setting: time 10 min after i.v. bolus and start of i.v. infusion 0.13 μg/kg/h of alpha-2C antagonist, before nasal TASK1/3 blocker.
Where [4] appears, read: time 30 min after i.v. bolus and start of i.v. infusion 0.13 μg/kg/h of alpha-2C antagonist, before nasal TASK1/3 blocker.
The mark [5] stands for this setting: time 60 min after i.v. bolus and start of i.v. infusion 0.13 μg/kg/h of alpha-2C antagonist, before nasal TASK1/3 blocker.
[6] abbreviates: time 90 min after i.v. bolus and start of i.v. infusion 0.13 μg/kg/h of alpha-2C antagonist, before nasal TASK1/3 blocker.
Setting [7] is: time 120 min after i.v. bolus and start of i.v. infusion 0.13 μg/kg/h of alpha-2C antagonist, before nasal TASK1/3 blocker.
[8] abbreviates: time 150 min after i.v. bolus and start of i.v. infusion 0.13 μg/kg/h of alpha-2C antagonist, before nasal TASK1/3 blocker.

Turning to `COc1cccc(C(=O)N2CCN(Cc3c(-c4ccc(Cl)cc4)nc4ccccn34)CC2)n1` [(4-{[2-(4-Chlorophenyl)imidazo[1,2-a]pyridin-3-yl]methyl}piperazin-1-yl)(6-methoxypyridin-2-yl)methanone], the “effectiveness of the dose on upper airway collapsibility” value (TASK1/TASK3 channel blocker alone, 0.3 μg) is “non effective dose”. Moreover, under setting [1], the “Percent pigs without collaps −50 cm H2O” value worked out at 0%, the “Percent pigs without collaps −100 cm H2O” value was 0% and the “Percent pigs without collaps −150 cm H2O” value worked out at 0%.

`COCc1cccnc1N1CCN(C[C@H]2COc3ccccc3O2)CC1` [(S)-1-((2,3-dihydrobenzo[b][1,4]dioxin-2-yl)methyl)-4-(3-(methoxymethyl)pyridin-2-yl)piperazine]: the “effectiveness of the dose on upper airway collapsibility” value (alpha-2C antagonist alone, i.v. bolus 0.3μg/kg + i.v. infusion 0.13 μg/kg/h) was “non effective dose”. Besides, the “effect on upper airway collapsibility” value is, setting by setting: (i.v. bolus 0.3μg/kg + i.v. infusion 0.13 μg/kg/h for five hours, only at time point 30 min after bolus and start of infusion) “inhibited upper airway collapsibility”; (i.v. bolus 0.3μg/kg + i.v. infusion 0.13 μg/kg/h, time point 120 min after bolus and start of infusion) “upper airway collapsibility was induced”. Further, the “Percent pigs without collaps −50 cm H2O” value reads like this: under setting [2], 0%; under setting [3], 0%; under setting [4], 100%; under setting [5], 100%; under setting [6], 50%; under setting [7], 0%. The “Percent pigs without collaps −50 cm H2O” value under setting [8] was 0%. The “Percent pigs without collaps −100 cm H2O” value runs as follows: under setting [2], 0%; under setting [3], 0%; under setting [4], 100%; under setting [5], 100%; under setting [6], 0%; under setting [7], 0%. The “Percent pigs without collaps −100 cm H2O” value under setting [8] came out at 0%. For the same molecule, the “Percent pigs without collaps −150 cm H2O” value by setting is: under setting [2], 0%; under setting [3], 0%; under setting [4], 100%; under setting [5], 50%; under setting [6], 0%; under setting [7], 0%. The “Percent pigs without collaps −150 cm H2O” value under setting [8] is on record as 0%.
